According to patent publication US20180078560A1, “USE OF 4-(4-FLUORO-2-METHOXYPHENYL)-N-{3-[(S-METHYLSULFONIMIDOYL)METHYL]PHENYL}-1,3,5-TRIAZIN-2-AMINE FOR TREATING MULTIPLE MYELOMA” (Bayer Pharma Aktiengesellschaft, priority 2015, published 2018):
Entries after “also recorded” stand apart in the source; their conditions may differ.

Assays:
[1] = tested on: NCI-H929 multiple myeloma xenograft; assay: In vivo efficacy in NCI-H929 multiple myeloma xenograft model; parameters: species or system NOD/SCID mice; details: 25 mg/kg/day p.o. once daily
Protocol: The aim of the present experiments was to assess the in vivo efficacy and tolerability of Compound A′ in monotherapy in the NCI-H929 multiple myeloma xenograft model subcutaneously implanted into NOD/SCID mice.
(§1) In vivo efficacy was determined in female NOD/SCID mice bearing subcutaneous multiple myeloma NCI-H929 xenografts. Compound A′ was assessed at one dose level in monotherapy. Anti-tumour activity and tolerability of the treated group was assessed using the vehicle control group as a reference.
Multiple myeloma tumour fragments, derived from the NCI-H929 cell line, were obtained from xenografts in serial passage in nude mice and placed in PBS containing 10% penicillin/streptomycin. Tumour fragments (one fragment per animal; 3-4 mm edge length) were then subcutaneously implanted in the flank of NOD/SCID recipient mice under isofluorane anaesthesia.
At randomisation, the volume of growing tumours was initially determined. […] The result of the randomisation was documented and maintained with the experimental data Animals not randomised were euthanised. […]
The tumour volumes were determined by two-dimensional measurement with a caliper on the day of randomisation (day 0) and then twice weekly (i.e. on the same days on which mice were weighed). Tumour volumes were calculated according to the formulas: […]
Relative volumes of individual tumours (RTVs) for Day x were calculated by dividing the absolute individual tumour volume on Day x (Tx) by the absolute individual tumour volume of the same tumour on Day 0 (T0) multiplied by 100%:
Anti-tumour activity was evaluated as maximum tumour volume inhibition versus the vehicle control group.
Tumour inhibition for a particular day (T/C in %) was calculated from the ratio of the median RTV values of test versus control groups multiplied by 100.
The minimum (or optimum) T/C% value recorded for a particular test group during an experiment represents the maximum anti-tumour activity for the respective treatment. T/C values were calculated if at least 50% of the randomized animals in the treated group were alive on the day in question. […]

OPM-2 = assay: Proliferation assay, OPM-2 cell line; type: cell-based; details: Homo sapiens, Multiple myeloma, after 72 hours of incubation
EJM = assay: Proliferation assay, EJM cell line; type: cell-based; details: Homo sapiens, Multiple myeloma, after 72 hours of incubation
NCI-H929 = assay: Proliferation assay, NCI-H929 cell line; type: cell-based; details: Homo sapiens, Multiple myeloma, after 72 hours of incubation
[2] = Tolerability (survival and body weight) in xenograft-bearing mice; type: in vivo
Protocol: as §1
Mortality checks were conducted daily during routine monitoring.
Mice were weighed twice a week. Relative body weights of individual mice in % were calculated by dividing the individual body weight on day X (BWX) by the individual body weight on day 0 (BW0) multiplied by 100 according to the formula: […]
Group median relative body weights were calculated as well, considering only the weights of mice that were alive on the day in question.
The in vivo efficacy and tolerability of BHC's investigational compound Compound A′ was assessed in monotherapy in the NCI-H929 multiple myeloma xenograft model. NCI-H929 tumour fragments, obtained from serial passage in nude mice, were implanted subcutaneously into female NOD/SCID mice. Compound A′ was administered orally at one dose level (25 mg/kg/day) in monotherapy once daily and treatment was started once subcutaneous tumours were established. A vehicle-treated control group was included in each experiment. […] Anti-tumour activity (tumour growth inhibition) and tolerability of treatment group was assessed using the vehicle control group as a reference.

JJN3 = assay: Proliferation assay, JJN3 cell line; type: cell-based; details: Homo sapiens, JJN-3, Multiple myeloma, after 72 hours of incubation

With `COc1cc(F)ccc1-c1ncnc(Nc2cccc(CS(C)(=N)=O)c2)n1` (single isomer, unassigned; (+)) [Compound A′, (+)-4-(4-Fluoro-2-methoxyphenyl)-N-{3-[(S-methylsulfonimidoyl)methyl]phenyl}-1,3,5-triazin-2-amine] the “NCI-H929 tumour growth vs vehicle control group” value ([1]; Mann-Whitney-Wilcoxon U-test) was “significantly reduced; also recorded: significantly attenuated”, the “minimum T/C value” ([1]; NCI-H929 xenograft s.c. in female NOD/SCID mice, ratio of median RTV vs vehicle) was 5.5% and the anti-tumour activity rating ([1]; NCI-H929 xenograft, rating from optimum T/C) was “High anti-tumour activity”. The IC50 (OPM-2) was 600 nM, the IC50 (EJM) was 200 nM and the IC50 (NCI-H929) was 237 nM. For the same compound, the “group median BWL (body weight loss)” value ([2]; NCI-H929 xenograft-bearing NOD/SCID mice, 25 mg/kg/day p.o. once daily) was at most 2.7%, the tolerability profile ([2]; multiple myeloma xenograft-bearing mice, 25 mg/kg/day p.o.) was “acceptable tolerability profile” and the IC50 (JJN3) was 330 nM.
